Experimental data published in patent EP1227090A1, “AMINE DERIVATIVES” (Tadeka Chemical Industries, Ltd., priority 1999, dated 2001).

Experiments:
Conditions in all cases: 125I-somatostatin-14 binding inhibition, CHO cell membrane fraction, 25°C for 60 minutes, Hill plots
[1] = target: T1, human somatostatin receptor protein subtype 3 (SSTR3) (Homo sapiens, UniProt P32745); assay: Measurement of the binding inhibition rate of 125I-Somatostatin (SSTR3)
T1 construct: expressed in transfected cells; host or cells: CHO (dhfr-) cells, strain SSTR3-15-19, plasmid pA1-11-SSTR3 (pAKKO-111 vector); membrane fraction
T1 sequence (P32745 whole entry): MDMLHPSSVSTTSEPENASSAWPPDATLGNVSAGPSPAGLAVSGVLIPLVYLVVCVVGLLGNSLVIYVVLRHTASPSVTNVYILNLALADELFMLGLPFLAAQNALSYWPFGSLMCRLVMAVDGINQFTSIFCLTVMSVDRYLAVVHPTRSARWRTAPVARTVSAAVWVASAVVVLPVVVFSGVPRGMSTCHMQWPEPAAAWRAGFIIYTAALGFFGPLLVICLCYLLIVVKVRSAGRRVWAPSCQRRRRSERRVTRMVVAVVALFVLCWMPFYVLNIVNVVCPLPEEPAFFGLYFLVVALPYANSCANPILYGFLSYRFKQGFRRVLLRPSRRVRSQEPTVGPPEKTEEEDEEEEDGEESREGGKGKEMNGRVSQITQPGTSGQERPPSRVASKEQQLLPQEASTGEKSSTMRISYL
Protocol: 1 x 10^6 CHO (dhfr^-) cells were cultured for 24 hours in HAM F12 medium containing 10% bovine fetal serum on a laboratory dish of 8 cm in diameter. The cells were transfected by 10 µg of the human SSTR3 DNA expression plasmid, pA-1-11-SSTR3, obtained under the above (5) using the calcium phosphate method. The medium was switched to DMEM medium containing 10% dialyzed bovine fetal serum 24 hours after the transfection to select the colony-forming cells (i.e. DHFR^+ cells) in this medium. Further, the selected cells were cloned from a single cell by the limiting dilution method and the somatostatin receptor protein expression activity of these cells was measured by the binding assay mentioned under the above (3). Thus, a highly somatostatin-binding cell strain, SSTR3-15-19, was selected.
(§1) Measurement of the binding inhibition rate of ^125I-Somatostatin
(§2) The receptor binding inhibition rate (%) of the subject compound was calculated using each of the membrane fractions prepared in Experimental Examples 1 and 2.
(§3) The membrane fraction was diluted with a buffer solution for assay to adjust the concentration to 3 µg/ml. The diluate was placed in tubes each in quantity of 173 µl. To this were simultaneously added 2 µl of a solution of a subject compound in DMSO and 25 µl of a 200 pM radioisotope-labeled somatostatin-14 (^125I-somatostatin-14: Amersham). For measurement of the maximum binding, a reaction mixture added with 2 µl of DMSO and 25 µl of a 200 pM ^125I-somatostatin was prepared. For measurement of non-specific binding, a reaction mixture added with 2 µl of a 100 µM somatostatin solution in DMSO and 25 µl of a 200 pM ^125I-somatostatin solution was prepared at the same time. The mixtures were allowed to react at 25°C for 60 minutes. Then, the reaction mixture was filtered by aspiration using a Whatman glass filter (GF-B) treated with polyethylenimine. After filtration, the radioactivity of ^125I-somatostatin-14 remaining on the filter paper was measured by a γ-counter. The binding inhibition rate (%) of each subject compound was calculated by the following formula: (TB-SB)/(TB-NSB) x 100 [formula] SB: radioactivity when a compound was added TB: maximum binding radioactivity NSB: non-specific binding radioactivity
(§4) The binding inhibition rates were measured by changing the concentrations of the subject compound, and the 50% inhibiting concentration of the subject compound (IC50 value) was calculated by the Hill plots.

[2] = target: T2, human somatostatin receptor protein subtype 5 (SSTR5) (Homo sapiens, UniProt P35346); assay: Measurement of the binding inhibition rate of 125I-Somatostatin (SSTR5)
T2 construct: expressed in transfected cells; host or cells: CHO (dhfr-) cells, strain SSTR5-32-4, plasmid pA1-11-SSTR5 (pAKKO-111 vector); membrane fraction
T2 sequence (P35346 whole entry): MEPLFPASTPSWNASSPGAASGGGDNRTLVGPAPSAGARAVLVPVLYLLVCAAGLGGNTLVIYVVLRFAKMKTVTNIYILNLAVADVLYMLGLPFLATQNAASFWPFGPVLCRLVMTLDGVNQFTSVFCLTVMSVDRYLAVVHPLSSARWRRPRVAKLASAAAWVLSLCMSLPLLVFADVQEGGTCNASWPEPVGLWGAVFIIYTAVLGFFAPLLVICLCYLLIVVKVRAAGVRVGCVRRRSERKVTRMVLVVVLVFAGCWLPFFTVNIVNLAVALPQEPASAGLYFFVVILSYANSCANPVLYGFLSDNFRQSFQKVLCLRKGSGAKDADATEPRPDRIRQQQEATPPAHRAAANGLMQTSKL
Protocol: 1 x 10^6 CHO (dhfr^-) cells were cultured for 24 hours in HAM F12 medium containing 10% bovine fetal serum on a laboratory dish of 8 cm in diameter. To the cells was transfected 10 µg of the human SSTR5 cDNA expression plasmid, pA-1-11-SSTR5, obtained under the above (11) by the calcium phosphate method. The medium was switched to DMEM medium containing 10% dialyzed bovine fetal serum 24 hours after the transfection to select the colony-forming cells (i.e. DHFR^+ cells) in this medium. Further, the selected cells were cloned from a single cell by the limiting dilution method and the somatostatin receptor protein expression activity of these cells was measured by binding assay mentioned under the above (3). Thus, a highly somatostatin-biding cell strain, SSTR5-32-4, was selected.
as §1, §2, §3, §4

[3] = target: T3, human somatostatin receptor protein subtype 2 (SSTR2) (Homo sapiens, UniProt P30874); assay: Measurement of the binding inhibition rate of 125I-Somatostatin (SSTR2)
T3 construct: expressed in transfected cells; host or cells: CHO (dhfr-) cells, strain SSTR2-HS5-9, plasmid pAC01 (pAKKO-111 vector); membrane fraction
T3 sequence (P30874 whole entry): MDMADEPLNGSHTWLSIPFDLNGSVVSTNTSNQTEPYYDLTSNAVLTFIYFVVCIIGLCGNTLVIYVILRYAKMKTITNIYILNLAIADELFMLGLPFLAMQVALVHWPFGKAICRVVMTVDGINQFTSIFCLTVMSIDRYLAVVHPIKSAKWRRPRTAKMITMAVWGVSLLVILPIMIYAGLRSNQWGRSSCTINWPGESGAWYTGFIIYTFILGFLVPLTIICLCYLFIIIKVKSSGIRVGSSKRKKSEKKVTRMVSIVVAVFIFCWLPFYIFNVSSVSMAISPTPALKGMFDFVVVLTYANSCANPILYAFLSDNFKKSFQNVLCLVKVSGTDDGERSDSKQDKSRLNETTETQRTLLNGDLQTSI
Protocol: 1 x 10^6 CHO (dhfr^-) cells were cultured for 24 hours in HAM F12 medium containing 10% bovine fetal serum on a laboratory dish of 8 cm in diameter. To the cells was transfected 10 µg of the human SSTR2 cDNA expression plasmid, pA-C01, obtained under the above (5) by the calcium phosphate method (Cell Phect Transfection Kit: Pharmacia). The medium was switched to DMEM medium containing 10% dialyzed bovine fetal serum 24 hours after the transfection to select the colony-forming cells (i.e. DHFR^+ cells) in this medium. Further, the selected cells were cloned from a single cell by the limiting dilution method and a cell strain which highly expresses human SSTR2, SSTR2-HS5-9, was selected.
as §1, §2, §3, §4

SMILES | IC50 [1] [nM] | IC50 [2] [nM] | IC50 [3] [nM]
CN(C)C[C@H]1Cc2cc(Cl)ccc2N(C(=O)[C@@H](Cc2c[nH]c3ccccc23)NC(=O)CCC2CCN(C(=O)c3ccccc3)CC2)C1 [Example 31, 3-(1-benzoyl-4-piperidinyl)-N-[(1R)-2-[(3R)-6-chloro-3-[(dimethylamino)methyl]-1,2,3,4-tetrahydro-1-quinolinyl]-1-(1-indol-3-ylmethyl)-2-oxoethyl]propanamide] | 60 | 300 | 2
CN(C)C[C@H]1Cc2cc(Cl)ccc2N(C(=O)[C@@H](Cc2c[nH]c3ccccc23)NC(=O)N2CCC(C(=O)c3ccc(Cl)cc3)CC2)C1 [Example 130, 4-(4-chlorobenzoyl)-N-[(1R)-2-[(3R)-6-chloro-3-[(dimethylamino)methyl]-1,2,3,4-tetrahydro-1-quinolinyl]-1-(1-indol-3-ylmethyl)-2-oxoethyl]-1-piperidinecarboxamide] | 40 | 400 | 2
CN(C)C[C@H]1Cc2cc(Cl)ccc2N(C(=O)[C@@H](Cc2c[nH]c3ccccc23)NC(=O)N2CCC(Oc3ccccc3)CC2)C1 [Example 145-2, N-[(1R)-2-[(3R)-6-chloro-3-[(dimethylamino)methyl]-1,2,3,4-tetrahydro-1-quinolinyl]-1-(1H-indol-3-ylmethyl)-2-oxoethyl]-4-phenoxyl-1-piperidinecarboxamide] | 10 | 200 | 1
CN(C)CC1Cc2cc(Cl)ccc2N(C(=O)[C@@H](Cc2c[nH]c3ccccc23)NC(=O)C2CCN(C(=O)c3cc4ccccc4[nH]3)CC2)C1 (stereo partly drawn) [Example 14, N-[(1R)-2-[6-chloro-3-(R,S)-[(dimethylamino)methyl]-1,2,3,4-tetrahydro-1-quinolinyl]-1-(1-indol-3-ylmethyl)-2-oxoethyl]-1-(1-indol-2-ylcarbonyl)-4-piperidinecarboxamide] | 70 | 300 | 0.6
CN(C)C[C@H]1Cc2cc(Cl)ccc2N(C(=O)[C@@H](Cc2c[nH]c3ccccc23)NC(=O)C2CCN(C(=O)c3cc4ccccc4n3C)CC2)C1 [Example 51, N-[(1R)-2-[(3R)-6-chloro-3-[(dimethylamino)-methyl]-1,2,3,4-tetrahydro-1-quinolinyl]-1-(1-indol-3-ylmethyl)-2-oxoethyl]-1-(1-methylindol-2-ylcarbonyl)-4-piperidinecarboxamide] | 80 | 400 | 0.3
